Experimental data: publication PMC8243516, “Inhibition of lysosomal phospholipase A2 predicts drug-induced phospholipidosis” (Journal of Lipid Research, 2021)
Read-outs that look alike come from different tables or passages of the source.

How the values were obtained:
[1] = molecular target: T1, recombinant mouse LPLA2 (PLA2G15) (Mus musculus, UniProt Q8VEB4); test: Transacylase activity of LPLA2 (1-O-acyl-N-acetylsphingosine synthase, cell-free liposome assay); type: biochemical; conditions: read-out: LPLA2 IC50
T1 construct: purchased Proteos Inc. (Kalamazoo, MI)
T1 sequence (Q8VEB4 34-412): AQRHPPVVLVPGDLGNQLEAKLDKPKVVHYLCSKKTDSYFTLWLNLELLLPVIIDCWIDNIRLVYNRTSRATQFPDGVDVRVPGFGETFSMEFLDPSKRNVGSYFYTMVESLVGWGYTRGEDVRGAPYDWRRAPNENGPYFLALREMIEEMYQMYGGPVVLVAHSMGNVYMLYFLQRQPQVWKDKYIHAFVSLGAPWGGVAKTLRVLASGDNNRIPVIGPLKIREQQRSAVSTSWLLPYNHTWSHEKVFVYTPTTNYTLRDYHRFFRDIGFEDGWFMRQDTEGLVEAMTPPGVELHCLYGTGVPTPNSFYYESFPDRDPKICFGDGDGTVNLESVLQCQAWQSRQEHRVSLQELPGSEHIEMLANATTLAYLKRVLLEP

LPLA2 = molecular target: T2, LPLA2 (Mus musculus, UniProt Q8VEB4); test: LPLA2 thermal stability measurement (SYPRO Orange Tm); type: binding; conditions: N=3 ± SD
T2 construct: purchased Proteos Inc. (Kalamazoo, MI)
T2 sequence (Q8VEB4 34-412): T1 sequence (Q8VEB4 34-412)

MDCK cells [2] = system: MDCK cells
phospholipidosis [3] = conditions: phospholipidosis reported in vitro; Refs of Table 1; cited from earlier work
phospholipidosis [4] = conditions: phospholipidosis reported in vivo, species codes; Refs of Table 1; cited from earlier work
[5] = ref Pubchem and chEMBL databases; cited from earlier work
MDCK cells [6] = test: Screening phospholipidosis assay (LipidTOX Red / NucBlue Live fluorescence ratio); conditions: LipidTOX Red to NucBlue Live fluorescence ratio, 24 h, 15 μM
[7] = 1-O-acyl N-acetylsphingosine synthase activity, pH 4.5, DOPC/sulfatide liposomes
[8] = LPLA2 dependent 1-O-acyl N-acetylsphingosine synthase activity

Compound | IC50 [1, 7] [µM] | IC50 [1, 8] [µM] | (ΔTm)c-(ΔTm)d, difference in melting temperature of LPLA2 alone or in the presence of drug (LPLA2) [°C] | Ratio (15 μM) (MDCK cells [2]) | In Vitro PLD (phospholipidosis [3]) | In Vivo PLD (phospholipidosis [4]) | pKa (basic) [5] | Ratio (15 μM) (MDCK cells [6])
Cc1ccc2c(Cl)cc(Cl)c(O)c2n1 [5,7 Dichloro-8-hydroxy-2-methyl quinolone] | 1180 | 1180 | 1.88 ± 0.9 | 0.29 | – | – | – | –
CC1(C)[C@@H](O)CC[C@]2(C)[C@H]3C(=O)C=C4[C@@H]5C[C@@](C)(C(=O)O)CC[C@]5(C)CC[C@@]4(C)[C@]3(C)CC[C@@H]12 [18 Beta-glycyrrhetinic acid] | – | 2430 | 1.88 ± 0.6 | 0.4 | – | – | – | –
CN(C)CCC=C1c2ccccc2CCc2ccccc21 [Amitriptyline, dimethyl(3-{tricyclo[9.4.0.0^3,^8]pentadeca-1(15),3,5,7,11,13-hexaen-2-ylidene}propyl)amine] | 14.7 | – | -0.5 ± 0.0 | – | Yes | R | – | –
CCN(CC)CCCC(C)Nc1ccnc2cc(Cl)ccc12 (stereo not drawn) [Chloroquine, 7-chloro-N-[5-(diethylamino)pentan-2-yl]quinolin-4-amine] | 655 | – | – | – | Yes | H, R, D, M | – | –
CN(C)CCCN1c2ccccc2Sc2ccc(Cl)cc21 [Chlorpromazine, [3-(2-chloro-10H-phenothiazin-10-yl)propyl] dimethylamine] | 9.01 | – | -2.1 ± 0.2 | – | Yes | R, D | – | –
CN(C)CCCC1(c2ccc(F)cc2)OCc2cc(C#N)ccc21 (stereo not drawn) [Citalopram, 1-[3-(dimethylamino)propyl]-1-(4-fluorophenyl)-1,3-dihydro-2-benzofuran-5-carbonitrile] | 19.5 | – | 0 | – | Yes | Yes | – | –
CCC[C@@H]1C[C@@H](C(=O)NC(C(C)Cl)[C@H]2O[C@H](SC)[C@H](O)[C@@H](O)[C@H]2O)N(C)C1 (stereo partly drawn) [Clindamycin, (2S,4R)-N-{2-chloro-1-[(2R,3R,4S,5R,6R)-3,4,5-trihydroxy-6-(methylsulfanyl)oxan-2-yl]propyl}-1-methyl-4-propylpyrrolidine-2-carboxamide] | – | – | – | – | Yes | Yes | – | –
C[C@H]1[C@H]2CC[C@H]3[C@@H]4CC=C5C[C@@H](N(C)C)CC[C@]5(C)[C@H]4CC[C@]23CN1C [Conessin] | – | 31.3 | 0.20 ± 01 | 1.08 | – | – | – | –
CN(C)CCC=C1c2ccccc2C=Cc2ccccc21 [Cyclobenzaprine, dimethyl(3-{tricyclo[9.4.0.0^3,^8]pentadeca-1(15),3,5,7,9,11,13-heptaen-2-ylidene}propyl)amine] | 6.24 | – | – | – | Yes | Yes | – | –
CNCCCN1c2ccccc2CCc2ccccc21 [Desipramine, (3-{2-azatricyclo [9.4.0.0]pentadeca-1(15),3,5,7,11,13-hexaen-2-yl}propyl)(methyl)amine] | 25.7 | – | 1.60 ± 0.1 | – | Yes | R | – | –
CN(C)CCC=C1c2ccccc2COc2ccccc21 [Doxepin, dimethyl(3-{9-oxatricyclo[9.4.0.0ˆ[1]]pentadeca-1(15),3,5,7,11,13-hexaen-2-ylidene}propyl)amine] | – | – | – | – | Yes | Yes | 9.76 | –
CNCCC(Oc1ccc(C(F)(F)F)cc1)c1ccccc1 (stereo not drawn) [Fluoxetine, methyl({3-phenyl-3-[4-(trifluoromethyl)phenoxy]propyl}) amine] | – | – | – | – | Yes | H,R,M | – | –
CN(C)CCCN1c2ccccc2CCc2ccccc21 [Imipramine, (3-{2-azatricyclo[9.4.0.0^3,^8]pentadeca-1(15),3,5,7,11, 13-hexaen-2-yl}propyl)dimethylamine] | 27.6 | – | 0 | – | Yes | R | 9.2 | –
O=C(NC1CCN(CCc2c[nH]c3ccccc23)CC1)c1ccccc1 [Indoramin, N-{1-[2-(1H-indol-3-yl)ethyl]piperidin-4-yl} benzamide] | 124 | – | 1.08 ± 0.4 | – | Yes | R | 9.59 | –
OC1(c2ccc(Cl)c(C(F)(F)F)c2)CCN(CCCC(c2ccc(F)cc2)c2ccc(F)cc2)CC1 [Penfluridol, 1-[4,4-bis(4-fluorophenyl)butyl]-4-[4-chloro-3-(trifluoromethyl)phenyl]piperidin-4-ol] | 9.09 | – | 0.11 ± 0.0 | – | – | Yes | 8.96 | 0.55
C1CCC(C(CC2CCCCN2)C2CCCCC2)CC1 (stereo not drawn) [Perhexiline, 2-(2,2-dicyclohexylethyl) piperidine] | 11.7 | – | -0.12 ± 0.0 | – | Yes | H,R,M | 10.58 | –
CN(C)CCCN1c2ccccc2Sc2ccccc21 [Promazine, dimethyl[3-(10H-phenothiazin-10-yl)propyl]amine] | 39 | – | -0.10 ± 0.0 | – | Yes | R | 9.2 | –
CC(CN1c2ccccc2Sc2ccccc21)N(C)C (stereo not drawn) [Promethazine, dimethyl[1-(10H-phenothiazin-10-yl)propan-2-yl] amine] | 40.3 | – | 1.45 ± 0.5 | – | Yes | Yes | – | –
CCN(CC)CCCC(C)Nc1c2ccc(Cl)cc2nc2ccc(OC)cc12.Cl.Cl (stereo not drawn) [Quinacrine, 6-chloro-9-(4-diethylamino-1-methylbutylamino)-2-methoxyacridine dihydrochloride] | – | – | – | – | Yes | R | – | –
CN[C@H]1CC[C@@H](c2ccc(Cl)c(Cl)c2)c2ccccc21 [Sertraline, (1S,4S)-4-(3,4-dichlorophenyl)-N-methyl-1,2,3,4-tetrahydronaphthalen-1-amine] | – | – | – | – | Yes | Yes | – | –
NC[C@H]1O[C@H](O[C@H]2[C@H](O)[C@@H](O[C@H]3O[C@H](CO)[C@@H](O)[C@H](N)[C@H]3O)[C@H](N)C[C@@H]2N)[C@H](N)C[C@@H]1O [Tobramycin, O-[3-amino-3-deoxy-α-D-glucopyranosyl-(1→6)]-O-[2,6-diamino-2,3,6-trideoxy-α-D-ribohexopyranosyl-(1→4)]-2-deoxy-D-streptamine] | 33 | – | 0.27 ± 0.1 | – | Yes | R,H | 9.8 | –
CCN(CC)CCOc1ccc(C(O)(Cc2ccc(Cl)cc2)c2ccc(C)cc2)cc1 (stereo not drawn) [Triparanol, 1-(4-(2-diethylaminoethoxy)phenyl)-1-p-tolyl-2-(4-chlorophenyl)ethanol] | 7.8 | – | 0 | – | Yes | R, M, Ha | 13.44 | –
Clc1ccccc1CNC[C@H]1CC[C@H](CNCc2ccccc2Cl)CC1 [ay-9944, trans-1,4-bis(2-chlorobenzylaminomethyl) cyclohexane] | 116 | – | 0.58 ± 0.4 | – | Yes | R,Ra, M | 9.1 | –
